Reference: the NIST ThermoML archive (doi:10.1016/j.jct.2012.06.023)
± gives the expanded uncertainty stated by the source.

Key:
[1] = 298.15 K; for surface tension liquid-gas: Wilhelmy plate; for viscosity: 101.33 kPa, Liquid, Concentric cylinders viscometry
[2] = refractive index (Na D-line) (dimensionless); details: 293.1 K; 101.33 kPa; Liquid; Standard Abbe refractometry
[3] = xn = mol fraction of the nth substance listed; details: x1 = 1; for surface tension liquid-gas: Wilhelmy plate; for viscosity: 101 kPa, Liquid, Concentric cylinders viscometry

Structure (SMILES)	surface tension liquid-gas [1]	viscosity [1]	refractive index [2]	surface tension liquid-gas ([3]; 298.15 K)	viscosity ([3]; 298.15 K)	surface tension liquid-gas ([3]; 303.15 K)	viscosity ([3]; 303.15 K)	surface tension liquid-gas ([3]; 308.15 K)	viscosity ([3]; 308.15 K)	surface tension liquid-gas ([3]; 313.15 K)	viscosity ([3]; 313.15 K)
CN(C)C=O [dimethylformamide]	35.2 ± 0.04 mN/m	0.8162 ± 0.0092 mPa·s	1.429 ± 0.02								
CN(C)C=O [dimethylformamide] + CCCCCCO				35.2 ± 0.04 mN/m	0.8162 ± 0.0092 mPa·s	34.1 ± 0.04 mN/m	0.7678 ± 0.0091 mPa·s	33 ± 0.04 mN/m	0.7262 ± 0.009 mPa·s	32 ± 0.03 mN/m	0.678 ± 0.0089 mPa·s
CN(C)C=O [dimethylformamide] + CCCCCO				35.2 ± 0.04 mN/m	0.8162 ± 0.0092 mPa·s	34.1 ± 0.04 mN/m	0.7678 ± 0.0091 mPa·s	33 ± 0.04 mN/m	0.7262 ± 0.009 mPa·s	32 ± 0.03 mN/m	0.678 ± 0.0089 mPa·s
CCCCCCCO [heptan-1-ol]	26.47 ± 0.13 mN/m	5.944 ± 0.038 mPa·s	1.424 ± 0.02								
CCCCCCO [hexan-1-ol]		4.593 ± 0.022 mPa·s	1.418 ± 0.001								
CN(C)C=O [dimethylformamide] + CCCCCCCO				35.2 ± 0.04 mN/m	0.8162 ± 0.0092 mPa·s	34.1 ± 0.04 mN/m	0.7678 ± 0.0091 mPa·s	33 ± 0.04 mN/m	0.7262 ± 0.009 mPa·s	32 ± 0.03 mN/m	0.678 ± 0.0089 mPa·s
CCCCCO [pentan-1-ol]	24.55 ± 0.062 mN/m	3.5 ± 0.018 mPa·s	1.409 ± 0.02								
